Reference: patent US20240246918A1, “COMPOUNDS AND COMPOSITIONS AS EIF4E INHIBITORS AND THE USES THEREOF” (Ribometrix, Inc., priority 2022, published 2024)
pIC50: −log10 of the molar value. Like-named read-outs stand apart in the source and are kept apart here.

Assays:
[1] = biological target: T1, human eIF4E protein (Homo sapiens, UniProt P06730); assay: Biochemical competitive binding assay (TR-FRET competition, EDA-m7GDP-ATTO-647N probe); conditions: read-out: hEIF4E TR-FRET IC50
T1 construct: purchased Novus NBP-45314
In short: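 IC50 values come from 4-parameter fits of the normalized 665/620 nm TR-FRET ratio. Compound was first incubated 15 min with 4 nM recombinant His-eIF4E bound to 2.5 nM Eu-anti-His antibody, then 15 min with 5 nM m7GDP-ATTO-647N tracer, in pH 7.5 HEPES buffer with 100 mM KCl, Tween-20 and BSA.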

[2] = tested on: cyclin D1 protein levels in COLO 205 cells; assay: Cyclin D1 cellular inhibition assay (HTRF, 6 hours); format: cell-based; conditions: 6 hours of compound treatment, Cyclin D1 protein levels by HTRF, read-out: COLO 205 6 h Cyclin D1 TR-FRET IC50
Experimental: The effect of compound treatment on cyclin D1 protein levels in COLO 205 cells was assessed, as follows. Test compound plates were prepared with a Tecan D300e Digital Dispenser as 11-point concentration-response curves with a final DMSO concentration of 1%. COLO 205 (ATCC, CCL-222) colorectal tumor cells were seeded to assay-ready plates in RPMI-1640 medium supplemented with 10% FBS at 20,000 cells in a volume of 6 microliters per well. After 6 hours of compound treatment, cells were lysed and Cyclin D1 protein levels were assessed by an HTRF assay (PerkinElmer #64CYCD1ITPEG), according to the manufacturer's protocol. Time-resolved fluorescence was measured using a Clariostar Plus microplate reader (BMG Labtech) or equivalent. After normalization to the average of DMSO control and maximum inhibition control wells, concentration-response data were plotted and standard 4-parameter curve fitting (GraphPad Prism v9.4.1) was utilized to determine IC50 values.

[3] = tested on: COLO 205 colorectal tumor cells; assay: Tumor cell viability inhibition assay (CellTiter-Glo 2.0, 72 hours); format: cell-based; conditions: COLO 205 cell viability
In short: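 IC50 derived by 4-parameter fitting after normalizing luminescence to DMSO and max-inhibition wells. Compounds tested as 11 concentrations in 4-fold steps on COLO 205 cells seeded at 1500 per well in RPMI-1640/10% FBS; ATP content measured with CellTiter-Glo 2.0 after 72 h.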

T1 sequence (P06730 whole entry): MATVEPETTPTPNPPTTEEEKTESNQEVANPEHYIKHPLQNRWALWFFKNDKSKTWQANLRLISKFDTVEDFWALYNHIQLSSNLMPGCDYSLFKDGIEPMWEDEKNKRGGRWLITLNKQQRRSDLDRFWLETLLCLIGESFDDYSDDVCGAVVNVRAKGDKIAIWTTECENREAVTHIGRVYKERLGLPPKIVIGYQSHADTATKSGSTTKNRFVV

Row | pIC50 [1] | pIC50 ([2]; Homo sapiens, COLO 205, 6 h) | pIC50 ([3]; Homo sapiens, COLO 205, 72 h) | pIC50 [2] | pIC50 [3] | SMILES
1 | 5.30 to 6.30 | < 4.70 | 4.70 to 5.30 | – | – | COC1CCN(C2CCc3nc(C)n(CCOc4ccc(Cl)cc4-c4cc(C)nc5c(C(=O)NC6CC(F)(F)C6)csc45)c(=O)c3C2)CC1 (stereo not drawn) [Compound 144]
2 | > 7.00 | > 5.30 | > 5.30 | – | – | Cc1cc(-c2cc(Cl)ccc2OCCn2c(C)nc3c(c2=O)C[C@H](N2C[C@H]4CC(F)(F)[C@H]4C2)CC3)c2scc(C(=O)O)c2n1 (single isomer, unassigned) [Compound 147]
3 | > 7.00 | < 4.70 | < 4.70 | – | – | Cc1cc(-c2cc(Cl)ccc2OCCn2c(C)nc3c(c2=O)C[C@H](N(C)[C@H]2CC[C@](C)(O)CC2)CC3)c2scc(C(=O)O)c2n1 (single isomer, unassigned) [Compound 227]
4 | > 7.00 | < 4.70 | < 4.70 | – | – | Cc1cc(-c2cc(Cl)ccc2OCCn2c(C)nc3c(c2=O)CC(N(C)Cc2ccc(=O)[nH]c2)CC3)c2scc(C(=O)O)c2n1 (single isomer, unassigned) [Compound 235]
5 | > 7.00 | > 5.30 | > 5.30 | – | – | Cc1cc(-c2cc(Cl)ccc2OCCn2c(C)nc3c(c2=O)CC(N2CCC4(CC2)CC4(F)F)CC3)c2scc(C(=O)O)c2n1 (stereo not drawn) [Compound 174]
6 | > 7.00 | 4.70 to 5.30 | 4.70 to 5.30 | – | – | Cc1cc(-c2cc(Cl)ccc2OCCn2c(C)nc3c(c2=O)CC(N(C)C2(C4CCC4)CC2)CC3)c2scc(C(=O)NS(C)(=O)=O)c2n1 (single isomer, unassigned) [Compound 231]
7 | > 7.00 | > 5.30 | > 5.30 | – | – | Cc1cc(-c2cc(Cl)ccc2OCCn2c(C)nc3c(c2=O)C[C@@H](N2C[C@H]4CCC(F)(F)[C@H]4C2)CC3)c2scc(C(=O)O)c2n1 (single isomer, unassigned) [Compound 168]
8 | > 7.00 | > 5.30 | > 5.30 | – | – | Cc1cc(-c2cc(Cl)ccc2OCCn2c(C)nc3c(c2=O)CC(N(C)Cc2ccsc2)CC3)c2scc(C(=O)O)c2n1 (stereo not drawn) [Compound 191]
9 | > 7.00 | > 5.30 | > 5.30 | – | – | COc1cc(CN(C)C2CCc3nc(C)n(CCOc4ccc(Cl)cc4-c4cc(C)nc5c(C(=O)NS(C)(=O)=O)csc45)c(=O)c3C2)ccn1 (single isomer, unassigned) [Compound 216]
10 | > 7.00 | 4.70 to 5.30 | > 5.30 | – | – | Cc1cc(-c2cc(Cl)ccc2OCCn2c(C)nc3c(c2=O)CC(N(C)Cc2cncnc2)CC3)c2scc(C(=O)O)c2n1 (stereo not drawn) [Compound 187]
11 | > 7.00 | > 5.30 | > 5.30 | – | – | Cc1cc(-c2cc(Cl)ccc2OCCn2c(C)nc3c(c2=O)C[C@H](N(C)C[C@H]2C[C@@H](C(F)(F)F)C2)CC3)c2scc(C(=O)O)c2n1 (stereo in doubt) [Compound 223]
12 | > 7.00 | > 5.30 | > 5.30 | – | – | Cc1cc(-c2cc(Cl)ccc2OCCn2c(C)nc3c(c2=O)C[C@@H](N2C[C@@H]4CC(F)(F)[C@@H]4C2)CC3)c2scc(C(=O)O)c2n1 (single isomer, unassigned) [Compound 149]
13 | 5.30 to 6.30 | < 4.70 | 4.70 to 5.30 | – | – | Cc1cc(-c2cc(Cl)ccc2OCCn2c(C)nc3c(c2=O)CC(N(C)CC2CC(F)(F)C2)CC3)c2scc(C(=O)NCC(F)F)c2n1 (stereo not drawn) [Compound 150]
14 | > 7.00 | > 5.30 | > 5.30 | – | – | Cc1cc(-c2cc(Cl)ccc2OCCn2c(C)nc3c(c2=O)CC(N2CCc4sccc4C2)CC3)c2scc(C(=O)O)c2n1 (stereo not drawn) [Compound 181]
15 | > 7.00 | < 4.70 | < 4.70 | – | – | Cc1cc(-c2cc(Cl)ccc2OCCn2c(C)nc3c(c2=O)CC(N(C)[C@H]2C[C@](C)(O)C2)CC3)c2scc(C(=O)O)c2n1 (stereo partly drawn) [Compound 193]
16 | > 7.00 | > 5.30 | > 5.30 | – | – | Cc1cc(-c2cc(Cl)ccc2OCCn2c(C)nc3c(c2=O)CC(N(C)Cc2ccccn2)CC3)c2scc(C(=O)O)c2n1 (stereo not drawn) [Compound 200]
17 | > 7.00 | > 5.30 | > 5.30 | – | – | Cc1cc(-c2cc(Cl)ccc2OCCn2c(C)nc3c(c2=O)CC(N(C)CC2CC(F)(F)C2)CC3)c2scc(C(=O)O)c2n1 (single isomer, unassigned) [Compound 258]
18 | > 7.00 | > 5.30 | > 5.30 | – | – | COC1CCN(C2CCc3nc(C)n(CCOc4ccc(Cl)cc4-c4cc(C)nc5c(C(=O)NS(C)(=O)=O)csc45)c(=O)c3C2)CC1 (single isomer, unassigned) [Compound 239]

Row | pIC50 [1] | pIC50 ([2]; Homo sapiens, COLO 205, 6 h) | pIC50 ([3]; Homo sapiens, COLO 205, 72 h) | pIC50 [2] | pIC50 [3] | SMILES
19 | > 7.00 | > 5.30 | > 5.30 | – | – | Cc1cc(-c2cc(Cl)ccc2OCCn2c(C)nc3c(c2=O)CC(N2CCc4cc(C(F)(F)F)ccc4C2)CC3)c2scc(C(=O)O)c2n1 (stereo not drawn) [Compound 160]
20 | > 7.00 | > 5.30 | > 5.30 | – | – | Cc1cc(-c2cc(Cl)ccc2OCCn2c(C)nc3c(c2=O)C[C@@H](N2CCC[C@]4(C2)CC4(F)F)CC3)c2scc(C(=O)O)c2n1 (single isomer, unassigned) [Compound 140]
21 | > 7.00 | < 4.70 | < 4.70 | – | – | Cc1nc2c(c(=O)n1CCOc1ccc(Cl)cc1-c1ccnc(C(=O)O)c1)CC(N(C)CC1CC(F)(F)C1)CC2 (stereo not drawn) [Compound 219]
22 | > 7.00 | < 4.70 | < 4.70 | – | – | Cc1cc(-c2cc(Cl)ccc2OCCn2c(C)nc3c(c2=O)C[C@@H](N(C)[C@H]2CC[C@@](C)(O)CC2)CC3)c2scc(C(=O)NS(C)(=O)=O)c2n1 (single isomer, unassigned) [Compound 215]
23 | > 7.00 | < 4.70 | < 4.70 | – | – | Cc1cc(-c2cc(Cl)ccc2OCCn2c(C)nc3c(c2=O)CC(N2CC4(C2)CC(O)(C(F)(F)F)C4)CC3)c2scc(C(=O)O)c2n1 (stereo not drawn) [Compound 195]
24 | > 7.00 | > 5.30 | > 5.30 | – | – | Cc1cc(-c2cc(Cl)ccc2OCCn2c(C)nc3c(c2=O)C[C@H](N(C)C[C@H]2C[C@H](C(F)(F)F)C2)CC3)c2scc(C(=O)O)c2n1 (single isomer, unassigned) [Compound 213]
25 | > 7.00 | > 5.30 | > 5.30 | – | – | COc1cc(CN(C)C2CCc3nc(C)n(CCOc4ccc(Cl)cc4-c4cc(C)nc5c(C(=O)O)csc45)c(=O)c3C2)ccn1 (single isomer, unassigned) [Compound 217]
26 | > 7.00 | < 4.70 | < 4.70 | – | – | Cc1cc(-c2cc(Cl)ccc2OCCn2c(C)nc3c(c2=O)C[C@@H](N(C)[C@H]2CC[C@](C)(O)CC2)CC3)c2scc(C(=O)NS(C)(=O)=O)c2n1 (single isomer, unassigned) [Compound 206]
27 | > 7.00 | > 5.30 | > 5.30 | – | – | Cc1cc(-c2cc(Cl)ccc2OCCn2c(C)nc3c(c2=O)CC(N(C)Cc2cccs2)CC3)c2scc(C(=O)O)c2n1 (stereo not drawn) [Compound 197]
28 | > 7.00 | < 4.70 | < 4.70 | – | – | Cc1cc(-c2cc(Cl)ccc2OCCn2c(C)nc3c(c2=O)CC(N2CCc4[nH]ncc4C2)CC3)c2scc(C(=O)O)c2n1 (stereo not drawn) [Compound 159]
29 | > 7.00 | – | – | > 5.30 | 4.70 to 5.30 | COc1cc(CN(C)C2CCc3nc(C)n(CCOc4ccc(Cl)cc4-c4cc(C)nc5c(C(=O)O)csc45)c(=O)c3C2)ccn1 (single isomer, unassigned) [Compound 218]
30 | > 7.00 | < 4.70 | < 4.70 | – | – | Cc1cc(-c2cc(Cl)ccc2OCCn2c(C)nc3c(c2=O)CC(N(C)Cc2cc[nH]n2)CC3)c2scc(C(=O)O)c2n1 (stereo not drawn) [Compound 186]
31 | > 7.00 | – | – | 4.70 to 5.30 | > 5.30 | COC1CCN(C2CCc3nc(C)n(CCOc4ccc(Cl)cc4-c4cc(C)nc5c(C(=O)NS(C)(=O)=O)csc45)c(=O)c3C2)CC1 (single isomer, unassigned) [Compound 240]
32 | > 7.00 | < 4.70 | < 4.70 | – | – | Cc1cc(-c2cc(Cl)ccc2OCCn2c(C)nc3c(c2=O)C[C@H](N(C)[C@H]2CC[C@@](C)(O)CC2)CC3)c2scc(C(=O)O)c2n1 (single isomer, unassigned) [Compound 224]
33 | > 7.00 | > 5.30 | > 5.30 | – | – | Cc1cc(-c2cc(Cl)ccc2OCCn2c(C)nc3c(c2=O)CC(N(C)Cc2cccnc2)CC3)c2scc(C(=O)O)c2n1 (stereo not drawn) [Compound 196]
34 | > 7.00 | > 5.30 | > 5.30 | – | – | Cc1cc(-c2cc(Cl)ccc2OCCn2c(C)nc3c(c2=O)CC(N2CCC(OC4CC4)CC2)CC3)c2scc(C(=O)O)c2n1 (stereo not drawn) [Compound 179]
35 | > 7.00 | > 5.30 | > 5.30 | – | – | Cc1cc(-c2cc(Cl)ccc2OCCn2c(C)nc3c(c2=O)CC(N2CC4CCC(C4)C2)CC3)c2scc(C(=O)O)c2n1 (stereo not drawn) [Compound 176]
